Measured values taken from publication PMC10056636, “3-Amino-Substituted Analogues of Fusidic Acid as Membrane-Active Antibacterial Compounds” (Membranes, 2023).
In brackets after ≈: the same amount, converted by molar mass. Like-named read-outs stand apart in the source and are kept apart here.

Legend:
[1] = tested on: human embryonic kidney cell line HEK293 (ATCC CRL-1573); test: in vitro; type: cell-based; settings: human, 20 h
Experimental: (§1) HEK293 cells were counted manually in a Neubauer hemocytometer and then plated in 384-well plates containing the test compounds to give a density of 5000 cells per well in a final volume of 50 µL. DMEM supplemented with 10% FBS was used as the growth medium, and the cells were incubated together with the compounds for 20 h at 37 °C in 5% CO2.
(§2) The cytotoxicity (or cell viability) was measured by fluorescence, ex: 560/10 nm, em: 590/10 nm (F560/590), after addition of 5 µL of 25 µg/mL resazurin (2.3 µg/mL final concentration) and after incubation for further 3 h at 37 °C in 5% CO2. The fluorescence intensity was measured using a Tecan M1000 Pro monochromator plate reader with automatic gain control. The CC50 (50% cytotoxicity concentration) values were calculated by curve fitting of inhibition vs. log(concentration) using a sigmoidal dose–response function, with variable fitting values for bottom, top, and slope. In addition, the maximal percentage of cytotoxicity is reported as DMax, indicating any compounds with partial cytotoxicity. The curve fitting was implemented using Pipeline Pilot’s dose–response component. The results were similar to those obtained by other curve-fitting tools, such as GraphPad’s Prism and IDBS’s XlFit. Any value with > indicated samples with no activity (low DMax value) or samples with CC50 values above the maximum tested concentration (higher DMax value).
(§3) In addition, samples were flagged as partially cytotoxic if DMax ≥ 50%, even for CC50 > the maximum tested concentration.
(§4) Tamoxifen served as a positive cytotoxicity standard. Melittin was used as a positive hemolytic standard.

in vitro = type: cell-based, human; settings: human, CC50
Experimental: as §1, §2, §3, §4

human red blood cells = test: Hemolysis assay; type: cell-based; settings: human, 1 h
Experimental: (§5) Human whole blood was washed three times with 3 volumes of 0.9% NaCl and then resuspended in the same medium to a concentration of 0.5 × 10^8 cells/mL, as determined by manual cell count in a Neubauer hemocytometer. The washed cells were then added to 384-well plates containing the test compounds to a final volume of 50 µL. After shaking on a plate shaker for 10 min, the plates were incubated for 1 h at 37 °C. After incubation, the plates were centrifuged at 1000× g for 10 min to pellet the cells and debris; 25 µL of the supernatant was then transferred to a polystyrene 384-well assay plate.
(§6) Hemolysis was monitored by measuring the supernatant absorbance at […] (OD405). The absorbance was measured using a Tecan M1000 Pro monochromator plate reader. HC10 and HC50 (10% and 50% hemolysis concentrations, respectively) were calculated by curve fitting of inhibition vs. log(concentration) using a sigmoidal dose–response function with variable fitting values for top, bottom, and slope. In addition, the maximal percentage of hemolysis is reported as DMax, indicating any compounds with partial hemolysis. The curve fitting was implemented using Pipeline Pilot’s dose–response component. […] Any value with > indicated sample with no activity (low DMax value) or samples with HC10 values above the maximum tested concentration (higher DMax value).
(§7) In addition, samples were flagged as partially hemolytic if DMax ≥ 50%, even for HC10 > the maximum tested concentration. […]

Hemolysis assay = type: cell-based, human; settings: human, Dmax (maximal percentage of hemolysis)
Experimental: as §5, §6, §7

[2] = tested on: Staphylococcus aureus (ATCC 43300) (MRSA); test: Antibacterial whole-cell growth inhibition (MIC, CO-ADD); type: cell-based; settings: for MIC: S. aureus (MRSA) ATCC 43300, inhibition ≥80%, two replicates (n = 2); for primary screening: antimicrobial activity: S. aureus (MRSA), primary screen at 32 μg/mL
Experimental: (§8) Antibacterial screening was carried out by the serial dilution method. All bacteria were cultured in the cation-adjusted Mueller Hinton broth (CAMHB) at 37 °C overnight. A sample of each culture was then diluted 40-fold in fresh broth and incubated at 37 °C for 1.5–3 h. The resultant mid-log phase cultures were diluted (CFU/mL measured by OD600) and then added into each well containing a test compound, giving a cell density of 5 × 10^5 CFU/mL and a total volume of 50 µL. All the plates were covered and incubated at 37 °C for 18 h without shaking.
(§9) Inhibition of bacterial growth was determined by measuring the absorbance at 600 nm (OD600) with a Tecan M1000 Pro monochromator plate reader. […]

[3] = tested on: Candida albicans (ATCC 90028); test: Antifungal growth inhibition (MIC, CO-ADD); type: cell-based; settings: C. albicans, inhibition ≥80%, two replicates per cell
[4] = tested on: Cryptococcus neoformans (ATCC 208821); test: Antifungal growth inhibition (MIC, CO-ADD); settings: inhibition ≥70%, two replicates per cell
Experimental: Antimicrobial, cytotoxicity, and hemolytic activity screening of the synthesized derivatives was carried out in the CO-ADD (The Community for Antimicrobial Drug Discovery) (http://www.co-add.org, accessed on 24 November 2020) and included analysis for antibacterial properties, cytotoxicity, and hemolytic activity.
The hit confirmation test included five bacteria, Escherichia coli (ATCC 25922), Klebsiella pneumoniae (ATCC 700603), Acinetobacter baumannii (ATCC 19606), Pseudomonas aeruginosa (ATCC 27853), and Staphylococcus aureus (ATCC 43300), and two fungi, Candida albicans (ATCC 90028) and Cryptococcus neoformans (ATCC 208821). […] The compounds were also screened for hemolysis of human red blood cells (human whole blood, strain ARCBS 5400 00150).
Samples were prepared in DMSO and water to a final testing concentration of 32 µg/mL or 20 µM (unless otherwise indicated in the data sheet) and serially diluted twofold up to 8 times. Each sample concentration was prepared in 384-well plates: non-binding surface plate (NBS; Corning 3640) for each bacterial/fungal strain, tissue-culture treated (TC-treated; Corning 3712/3764) black for mammalian cell types and polypropylene 384-well plates (PP; Corning 3657) for hemolysis assays. The final DMSO concentration was maintained to a maximum of 0.5%. All sample preparation procedures were performed using liquid-handling robots. All screening was performed as two replica (n = 2), with both replicas on different assay plates, but from single plating and performed in a single screening experiment (microbial incubation). In addition, two values are used as quality controls for individual plates: Z′-Factor [1 − (3* (sd(NegCtrl) + sd(PosCtrl))/(average(PosCtrl)-average(NegCtrl)))] and standard antibiotic controls at different concentrations (>MIC and <MIC).
Fungi strains were cultured for 3 days on yeast extract-peptone dextrose (YPD) agar at 30 °C. A yeast suspension of 1 × 10^6 to 5 × 10^6 CFU/mL (as determined by OD530) was prepared from five colonies. The suspension was subsequently diluted and added to each well containing a test compound, giving a final cell density of fungi suspension of 2.5 × 10^3 CFU/mL and a total volume of 50 µL. All plates were covered and incubated at 35 °C for 36 h without shaking.
The absorbance was measured using a Biotek Multiflo Synergy HTX plate reader. In both cases, the percentage of growth inhibition was calculated for each well, using the negative control (media only) and positive control (fungi without inhibitors) in the same plate. […] In addition, the maximal percentage of growth inhibition is reported as DMax, indicating any compounds with marginal activity.
Fluconazole was used as a positive fungal inhibitor standard for C. albicans and C. neoformans. […] The quality control (QC) of the assays was performed using Z′-factors calculated from the negative (media only) and positive controls (bacterial, fungal, or cell culture without inhibitor) and the standards.

[5] = tested on: Pseudomonas aeruginosa (ATCC 27853); test: Antibacterial whole-cell growth inhibition (MIC, CO-ADD); type: cell-based; settings: P. aeruginosa, two replicates per cell
Experimental: as §8, §9

[6] = tested on: Escherichia coli (ATCC 25922); test: as above; type: cell-based; settings: E. coli, two replicates per cell
Experimental: as §8, §9

[7] = tested on: Acinetobacter baumannii (ATCC 19606); test: as above; type: cell-based; settings: A. baumannii, two replicates per cell
Experimental: as §8, §9

[8] = Measurement of the membrane boundary potential (K+-nonactin conductance); settings: DPhPG, 0.1 M KCl, pH 7.4, 50 mV
Experimental: Measurement of the membrane boundary potential. Virtually solvent-free planar lipid bilayers were made of DPhPC or DPhPG as described above. After the membrane was completely formed and stabilized and its stability was assessed by applying voltages in a range from −200 to 200 mV with a 50 mV step for 5–10 min, stock solutions of nonactin A (7 μg/mL in ethanol) were added to the bathing solution (0.1 M KCl, 5 mM HEPES, pH 7.4) in both chamber compartments to obtain a final concentration ranging from 0.1 to 1 μM.
Test derivatives (4, 20, 22) as 10 mg/mL solutions in ethanol were added to both compartments in a concentration range from 5 µg/mL to Cbr in increments of 25 µg/mL.
The conductance of the bilayers was determined by measuring the membrane conductance (G) at a constant transmembrane voltage of 50 mV. In the subsequent calculations, the membrane conductance was assumed to be related to the membrane boundary potential (φb), the potential drop between the aqueous solution and the membrane hydrophobic core, by the Boltzmann distribution (1) Gm/Gm0=exp(eΔφb/kT) where Gm and Gm^0 are the steady-state membrane conductances induced by K^+-nonactin in the presence and absence of test compounds, respectively; e, k, and T have their usual meanings.
The changes in the membrane boundary potential for the defined experimental conditions were averaged from 4 bilayers and presented as mean ± standard deviation (p ≤ 0.05).

[9] = Ion permeability, pore formation and rupture of planar lipid bilayers
Experimental: (§10) Synthetic 1,2-diphytanoyl-sn-glycero-3-phosphocholine (DPhPC) and 1,2-diphytanoyl-sn-glycero-3-phospho-(1′-rac-glycerol) (DPhPG) were purchased from Avanti® Polar Lipids (Avanti Polar Lipids, Inc., Alabaster, AL, USA). A KCl solution (0.1 M) was buffered with 5 mM HEPES, pH 7.4. Bilayer lipid membranes were prepared from DPhPC or DPhPG using a monolayer-opposition technique on a 50 µm-diameter aperture in a 10 µm-thick Teflon film separating the cis- and trans-compartments of the Teflon chamber. Experiments were performed in chambers containing 0.1 M KCl, 5 mM Hepes-KOH, pH 7.4.
(§11) The test compounds (4, 20, 22) were added to the cis-chamber as 10 mg/mL solutions in ethanol (to mimic the physiologically relevant conditions) up to the final concentrations and the effects of the compounds on the ion permeability of the model lipid membranes were studied. Ag/AgCl electrodes with 1.5% agarose/2 M KCl bridges were used to apply the transmembrane voltage (V) and measure the transmembrane current (I). ‘Positive voltage’ refers to the case in which the cis-side compartment is positive with respect to the trans-side. All experiments were performed at room temperature.
(§12) The current was measured using an Axopatch 200B amplifier (Molecular Devices, LLC, Orlean, CA, USA) in voltage clamp mode. Data were digitized using a Digidata 1440A and analyzed using pClamp 10.0 (Molecular Devices, LLC, Orlean, CA, USA) and Origin 8.0 (OriginLab Corporation, Northampton, MA, USA). The data were acquired at a sampling frequency of 5 kHz using low-pass filtering at 200 Hz.
(§13) The threshold concentrations (Cbr) of the derivatives required to rupture the bilayers composed of DPhPC or DPhPG at a transmembrane voltage of 100 mV were determined. Cbr-values were averaged from 3 to 4 bilayers and presented as mean ± standard error (p ≤ 0.05).
Pore-forming ability of compound 22 was studied by applying transmembrane voltages in a range of 50–200 mV with 50 mV step and by increasing the derivative concentration in the bilayer bathing solution from 10 to 150 µg/mL.

[10] = Ion permeability and rupture of planar lipid bilayers
Experimental: as §10, §11, §12, §13

[11] = Staphylococcus aureus, read-out: MIC

Structure (SMILES)	CC50 [1]	CC50 at 20 h (in vitro) [mg/L]	melting point [°C]	Dmax (maximal percentage of hemolysis) (human red blood cells) [%]	HC50 (human red blood cells)	hemolysis at 1 h (Hemolysis assay) [%]	MIC [2]	primary screening: antimicrobial activity [2]	MIC [2, 11] [mg/L]	also measured
CC(=O)O[C@H]1C[C@@]2(C)[C@H](C[C@@H](O)[C@@H]3[C@@]4(C)CC[C@H](NC(=O)c5cnccn5)[C@@H](C)C4CC[C@@]32C)/C1=C(\CCC=C(C)C)C(=O)O (stereo partly drawn) [Compound 3, (2Z)-2-{(3β,4α,8α,11α,14β,16β)-16-(acetyloxy)-11-hydroxy-4,8,10,14-tetramethyl-3-[(pyrazin-2-ylcarbonyl)amino]gonan-17-ylidene}-6-methylhept-5-enoic acid]	>32 >32 µg/mL	> 32	162 to 164	1.4	>32 >32 µg/mL	2.2	≤0.25 ≤0.25 µg/mL	showed antimicrobial activity	0.25 (≈ 0.402 µM)	
CC(=O)O[C@H]1C[C@@]2(C)[C@@H](C[C@@H](O)[C@H]3[C@@]4(C)CC[C@@H](O)[C@@H](C)[C@@H]4CC[C@@]32C)/C1=C(\CCC=C(C)C)C(=O)O [Fusidic acid]	>32 >32 µg/mL	> 32		9.7	>32 >32 µg/mL	10	≤0.25 ≤0.25 µg/mL		≤ 0.25	MIC [3]: >32 >32 µg/mL; MIC ([3]; Candida albicans, ATCC90028, read-out: MIC): > 32 mg/L; MIC ([4]; C. neoformans): >32 >32 µg/mL; MIC ([4]; Cryptococcus neoformans, ATCC208821, C. neoformans): > 32 mg/L; MIC [5]: >32 >32 µg/mL; MIC ([5]; Pseudomonas aeruginosa, ATCC27853, read-out: MIC): > 32 mg/L; MIC [6]: >32 >32 µg/mL; MIC ([6]; Escherichia coli, ATCC25922, read-out: MIC): > 32 mg/L; MIC [7]: >32 >32 µg/mL; MIC ([7]; Acinetobacter baumannii, ATCC19606, read-out: MIC): > 32 mg/L
COC(=O)/C(CCC=C(C)C)=C1\[C@@H](OC(C)=O)C[C@@]2(C)[C@@H]1C[C@@H](O)[C@@H]1[C@@]3(C)CC[C@H](NC(=O)c4cnccn4)[C@@H](C)C3CC[C@@]12C (stereo partly drawn) [Compound 4, Methyl (2Z)-2-{(3β,4α,8α,11α,14β,16β)-16-(acetyloxy)-11-hydroxy-4,8,10,14-tetramethyl-3-[(pyrazin-2-ylcarbonyl)amino]gonan-17-ylidene}-6-methylhept-5-enoate]	> 32 µg/mL	24 (≈ 37.7 µM)	151 to 153		>32 >32 µg/mL	3.9	≤0.25 ≤0.25 µg/mL	showed antimicrobial activity	0.25 (≈ 0.393 µM)	−Δφb(max) (maximum decrease in the membrane boundary potential) [8]: 21 ± 5 mV; concentration up to which ionic permeability of lipid bilayers is not affected ([9]; DPhPG): up to 170 μg/mL; formation of ion-permeable pores ([9]; DPhPG bilayers): not able to form transient ion-permeable pores; Cbr (threshold concentration required to rupture the bilayer) ([9]; DPhPG, 0.1 M KCl, pH 7.4, 100 mV): 163 ± 11 µg/mL; concentration up to which addition did not increase the ion permeability of the lipid bilayers ([10]; DPhPC uncharged membranes): ≤ 225 µg/mL; Cbr (threshold concentration required to rupture the bilayer) ([10]; DPhPC, 0.1 M KCl, pH 7.4, 100 mV): 225 ± 15 µg/mL
